Test results: US11140318B2, “Laser endoscope device” (Mie University, priority 2016, dated 2021)
Read-outs that look alike come from different tables or passages of the source.

How the values were obtained:
healthy mucosa tissue = conditions: mouse, in vivo
Description: (§1) The finding 3 will be described with reference to a case where a cell morphology in a living body is imaged under the multiphoton laser microscope (FV1000MPE manufactured by Olympus Corporation) while changing the focal point position and a plurality of captured images are cut in a predetermined position to create a cross-sectional image (tomographic image). A laboratory mouse was used as the living body.
(§2) As the stain for staining the cell group, both the stain containing curcumin and the stain containing Acid Red (red #106) were used. The staining period was set at 5 minutes. The staining period is the period for which the stain is caused to be in contact with the cell group and the dye of the stain is allowed to penetrate into the cells themselves or the gaps between the cells.

cancer tissue = conditions: mouse, in vivo
Description: as §1, §2

With COc1cc(/C=C/C(=O)CC(=O)/C=C/c2ccc(O)c(OC)c2)ccc1O [curcumin dye, curcumin] the “depth to which the tissue is stained” value (healthy mucosa tissue; 5 min) was “about 20 μm” and the “depth to which the tissue is stained” value (cancer tissue; 5 min) was “about 40 μm”.
In the case of CCN(CC)c1ccc2c(-c3ccc(S(=O)(=O)[O-])cc3S(=O)(=O)[O-])c3ccc(=[N+](CC)CC)cc-3oc2c1.[Na+] [Acid Red dye, Acid Red], the “depth to which the tissue is stained” value (healthy mucosa tissue) is reported as “about 70 μm” and the “depth to which the tissue is stained” value (cancer tissue) is reported as “about 40 μm”.
